According to patent US11096389B2, “Alkanolamine sulfate water conditioners” (Indorama Ventures Oxides LLC, priority 2014, dated 2021):
Values joined by “and” are separate entries in the source; they are usually repeats but may differ in a detail not shown here. Equal entries are not always repeated.

Assays:
[1] = TGA; mixture of water, dicamba-DGA and water conditioning agent at field-use concentrations
Excerpt: A comparison of the increase in auxin herbicide volatility in various water conditioning agents was done by preparing mixtures of water, herbicide (dicamba diglycolamine (DGA) salt in this case), and water conditioning agent. Concentration of the solutions mimics actual agricultural field-use concentrations. In this test, done using thermogravimetric analysis (TGA), a comparison was made between a control (dicamba-DGA alone) to dicamba-DGA plus a water conditioning agent.

amaranth = experiment: Field trial, water conditioning effect with glyphosate, visual injury; type: in vivo; details: for % Control 2 Weeks Post Treatment, Mean / % Control 4 Weeks Post Treatment, Mean: mean of 3 plots; for % Control 2 Weeks Post Treatment / % Control 4 Weeks Post Treatment: single plots
Procedure: (§1) A field trial was conducted to compare the efficacy of the herbicide glyphosate (diluted to less than its label use rate with distilled water or water containing 1000 ppm (calcium+magnesium)), with or without water conditioning agents of the present disclosure. In this trial, the glyphosate-containing spray was applied to flax, amaranth, sunflower and corn. The glyphosate used in this field trial was Touchdown® HT herbicide and its spray application rate was kept constant at 9.6 fl oz/a. A non-ionic surfactant (Activator 90 surfactant) was also applied with the herbicide at a constant spray application rate of 0.5% v/v. Finally, the water conditioning agents of the present disclosure, when present, were applied at spray application rates of 0.75% v/v and 1.0% v/v. Flax, amaranth, sunflower and corn, which had been plotted at various locations throughout the field, were spray treated and visually assessed on a particular day after treatment for injury on a scale of 0 to 100%, with zero representing “no” injury and 100% representing “complete” injury or death. The water conditioning agents tested during this trial included: […]

corn = experiment: as above; type: in vivo; details: for % Control 2 Weeks Post Treatment, Mean / % Control 4 Weeks Post Treatment, Mean: mean of 3 plots; for % Control 2 Weeks Post Treatment / % Control 4 Weeks Post Treatment: single plots
Procedure: as §1

flax = experiment: as above; type: in vivo; details: for % Control 2 Weeks Post Treatment, Mean / % Control 4 Weeks Post Treatment, Mean: mean of 3 plots; for % Control 2 Weeks Post Treatment / % Control 4 Weeks Post Treatment: single plots
Procedure: as §1

sunflower = experiment: as above; type: in vivo; details: for % Control 2 Weeks Post Treatment, Mean / % Control 4 Weeks Post Treatment, Mean: mean of 3 plots; for % Control 2 Weeks Post Treatment / % Control 4 Weeks Post Treatment: single plots
Procedure: as §1

[2] = Compatibility with glyphosate herbicide solution; type: physicochemical; details: 950 g water with 1000 ppm calcium, 30 g MEA sulfate solution, 20 g ROUNDUP ULTRA MAX
Procedure: A mixture of 950 grams water containing 1000 ppm calcium, 30 grams of the MEA sulfate solution from Example 1, and 20 grams of ROUNDUP ULTRA® MAX herbicide (The Scotts Company LLC of Marysville, Ohio) was prepared.

[3] = glyphosate in distilled water + non-ionic surfactant
[4] = glyphosate in hard water + non-ionic surfactant, no water conditioner
[5] = glyphosate in hard water + non-ionic surfactant + sulfate at 0.75% v/v
[6] = glyphosate in hard water + non-ionic surfactant + sulfate at 1.0% v/v

For `COc1c(Cl)ccc(Cl)c1C(=O)O` [Dicamba-DGA, 3,6-dichloro-2-methoxybenzoic acid], which “Relative Volatility” value [1] is on record?
The value was 0.01185.

With `O=C(O)CNCP(=O)(O)O` [Glyphosate, N-(phosphonomethyl) glycine, reference compound] as the compound, how does the “% Control 2 Weeks Post Treatment, Mean” value (amaranth; [3]) read?
Its value is 53.3%.

And the “% Control 4 Weeks Post Treatment, Mean” value (amaranth; [3])?
The value was 56.7%.

What about the “% Control 2 Weeks Post Treatment” value (amaranth; [3]) of the same compound?
The value was 50% and 60%.

What about the “% Control 4 Weeks Post Treatment” value (amaranth; [3]) of the same compound?
The value was 55% and 60%.

What about the “% Control 2 Weeks Post Treatment, Mean” value (amaranth; [4]) of the same compound?
Its value is 33.3%.

What about the “% Control 4 Weeks Post Treatment, Mean” value (amaranth; [4]) of the same compound?
The value was 33.3%.

What about the “% Control 2 Weeks Post Treatment” value (amaranth; [4]) of the same compound?
Its value is 30% and 35%.

What about the “% Control 4 Weeks Post Treatment” value (amaranth; [4]) of the same compound?
Its value is 30% and 35%.

And the “% Control 2 Weeks Post Treatment, Mean” value (corn; [3])?
The value was 53.3%.

And the “% Control 4 Weeks Post Treatment, Mean” value (corn; [3])?
Its value is 56.7%.

And the “% Control 2 Weeks Post Treatment” value (corn; [3])?
The value was 50% and 60%.

And the “% Control 4 Weeks Post Treatment” value (corn; [3])?
The value was 55% and 60%.

And the “% Control 2 Weeks Post Treatment, Mean” value (corn; [4])?
The value was 33.3%.

And the “% Control 4 Weeks Post Treatment, Mean” value (corn; [4])?
Its value is 33.3%.

And the “% Control 2 Weeks Post Treatment” value (corn; [4])?
The value was 30% and 35%.

And the “% Control 4 Weeks Post Treatment” value (corn; [4])?
Its value is 30% and 35%.

What about the “% Control 2 Weeks Post Treatment, Mean” value (flax; [3]) of the same compound?
The value was 53.3%.

And the “% Control 4 Weeks Post Treatment, Mean” value (flax; [3])?
Its value is 56.7%.

And the “% Control 2 Weeks Post Treatment” value (flax; [3])?
The value was 50% and 60%.

And the “% Control 4 Weeks Post Treatment” value (flax; [3])?
Its value is 55% and 60%.

And the “% Control 2 Weeks Post Treatment, Mean” value (flax; [4])?
The value was 33.3%.

And the “% Control 4 Weeks Post Treatment, Mean” value (flax; [4])?
The value was 33.3%.

What about the “% Control 2 Weeks Post Treatment” value (flax; [4]) of the same compound?
Its value is 30% and 35%.

What about the “% Control 4 Weeks Post Treatment” value (flax; [4]) of the same compound?
Its value is 30% and 35%.

And the “% Control 2 Weeks Post Treatment, Mean” value (sunflower; [3])?
The value was 53.3%.

And the “% Control 4 Weeks Post Treatment, Mean” value (sunflower; [3])?
Its value is 56.7%.

What about the “% Control 2 Weeks Post Treatment” value (sunflower; [3]) of the same compound?
The value was 50% and 60%.

And the “% Control 4 Weeks Post Treatment” value (sunflower; [3])?
Its value is 55% and 60%.

What about the “% Control 2 Weeks Post Treatment, Mean” value (sunflower; [4]) of the same compound?
The value was 33.3%.

And the “% Control 4 Weeks Post Treatment, Mean” value (sunflower; [4])?
Its value is 33.3%.

What about the “% Control 2 Weeks Post Treatment” value (sunflower; [4]) of the same compound?
The value was 30% and 35%.

What about the “% Control 4 Weeks Post Treatment” value (sunflower; [4]) of the same compound?
The value was 30% and 35%.

Which “physical and chemical compatibility with glyphosate-containing formulation” value [2] does the source give for monoethanolamine sulfate [Sulfate 1] here?
The value was “clear, homogenous solution”.

And the “% Control 2 Weeks Post Treatment, Mean” value (amaranth; [5])?
Its value is 72.7%.

What about the “% Control 4 Weeks Post Treatment, Mean” value (amaranth; [5]) of the same compound?
Its value is 72.7%.

And the “% Control 2 Weeks Post Treatment” value (amaranth; [5])?
Its value is 75% and 68%.

And the “% Control 4 Weeks Post Treatment” value (amaranth; [5])?
The value was 75% and 68%.

What about the “% Control 2 Weeks Post Treatment, Mean” value (amaranth; [6]) of the same compound?
Its value is 81.7%.

And the “% Control 4 Weeks Post Treatment, Mean” value (amaranth; [6])?
Its value is 71.7%.

What about the “% Control 2 Weeks Post Treatment” value (amaranth; [6]) of the same compound?
Its value is 80% and 85%.

And the “% Control 4 Weeks Post Treatment” value (amaranth; [6])?
Its value is 70% and 75%.

What about the “% Control 2 Weeks Post Treatment, Mean” value (corn; [5]) of the same compound?
The value was 68.7%.

And the “% Control 4 Weeks Post Treatment, Mean” value (corn; [5])?
Its value is 79.3%.

And the “% Control 2 Weeks Post Treatment” value (corn; [5])?
The value was 68% and 70%.

And the “% Control 4 Weeks Post Treatment” value (corn; [5])?
The value was 80% and 78%.

And the “% Control 2 Weeks Post Treatment, Mean” value (corn; [6])?
The value was 77.7%.

What about the “% Control 4 Weeks Post Treatment, Mean” value (corn; [6]) of the same compound?
Its value is 86%.

What about the “% Control 2 Weeks Post Treatment” value (corn; [6]) of the same compound?
Its value is 80% and 75% and 78%.

What about the “% Control 4 Weeks Post Treatment” value (corn; [6]) of the same compound?
The value was 88% and 85%.

And the “% Control 2 Weeks Post Treatment, Mean” value (flax; [5])?
Its value is 51.7%.

What about the “% Control 4 Weeks Post Treatment, Mean” value (flax; [5]) of the same compound?
The value was 51.7%.

What about the “% Control 2 Weeks Post Treatment” value (flax; [5]) of the same compound?
Its value is 45% and 50% and 60%.

And the “% Control 4 Weeks Post Treatment” value (flax; [5])?
Its value is 45% and 50% and 60%.

What about the “% Control 2 Weeks Post Treatment, Mean” value (flax; [6]) of the same compound?
Its value is 48.3%.

What about the “% Control 4 Weeks Post Treatment, Mean” value (flax; [6]) of the same compound?
Its value is 48.3%.

And the “% Control 2 Weeks Post Treatment” value (flax; [6])?
The value was 55% and 45%.

What about the “% Control 4 Weeks Post Treatment” value (flax; [6]) of the same compound?
Its value is 55% and 45%.

What about the “% Control 2 Weeks Post Treatment, Mean” value (sunflower; [5]) of the same compound?
The value was 71%.

What about the “% Control 4 Weeks Post Treatment, Mean” value (sunflower; [5]) of the same compound?
The value was 71%.

What about the “% Control 2 Weeks Post Treatment” value (sunflower; [5]) of the same compound?
Its value is 70% and 75% and 68%.

What about the “% Control 4 Weeks Post Treatment” value (sunflower; [5]) of the same compound?
Its value is 70% and 75% and 68%.

And the “% Control 2 Weeks Post Treatment, Mean” value (sunflower; [6])?
Its value is 85%.

What about the “% Control 4 Weeks Post Treatment, Mean” value (sunflower; [6]) of the same compound?
Its value is 80%.

What about the “% Control 2 Weeks Post Treatment” value (sunflower; [6]) of the same compound?
The value was 85%.

What about the “% Control 4 Weeks Post Treatment” value (sunflower; [6]) of the same compound?
The value was 80%.
